The values that follow come from patent EP1015446B1, “(4-PIPERIDINYL)-1H-2-BENZOPYRAN DERIVATIVES USEFUL AS ANTIPSYCHOTIC AGENTS” (Aventis Pharmaceuticals Inc., priority 1997, dated 1998).

Where a name gives a salt, the structure may show the parent alone.

In general, Ki refers to a measure of affinity in units of concentration, obtained from inhibition or displacement. Broadly, the ED50 is the dose at which the effect has come halfway, by size or by number of responders.

The first assay deals with T1, cloned human dopamine D2Long receptors (Homo sapiens, UniProt P14416).
T1 construct: expressed in transfected cells; membranes used
T1 sequence (P14416 whole entry): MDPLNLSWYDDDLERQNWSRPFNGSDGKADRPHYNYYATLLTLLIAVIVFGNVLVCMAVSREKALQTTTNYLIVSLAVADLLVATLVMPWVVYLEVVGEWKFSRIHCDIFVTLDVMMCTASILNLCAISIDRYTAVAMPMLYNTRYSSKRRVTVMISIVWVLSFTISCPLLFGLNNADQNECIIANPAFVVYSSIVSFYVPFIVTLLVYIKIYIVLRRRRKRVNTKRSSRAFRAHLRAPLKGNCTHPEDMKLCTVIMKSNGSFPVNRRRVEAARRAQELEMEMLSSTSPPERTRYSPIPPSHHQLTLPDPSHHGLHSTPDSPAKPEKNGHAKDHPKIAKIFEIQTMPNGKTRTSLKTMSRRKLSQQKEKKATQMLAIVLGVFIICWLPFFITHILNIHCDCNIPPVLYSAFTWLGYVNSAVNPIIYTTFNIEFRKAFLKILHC
Description: biochemical.
Details: not given
The assay is classed as binding.
Consider `O=CNC[C@@H]1O[C@H](C2CCN(CCCC(c3ccc(F)cc3)c3ccc(F)cc3)CC2)Cc2c1ccc1c2OC2(CCCCC2)O1` [Example 28, cis-N-[3-[1-[4,4-Bis-(4-fluorophenyl)butyl]-4-DiDeridinyl]-5,6-(cyclohexylidenedioxy)-3,4-dihydro-1H-2-benzopyran-1-ylmethyl]formamide Oxalate Hemihydrate], for which the affinity, expressed as Ki, was 639 nM.

The assay is the same for the next values; noted with them: Binding to Human D2Long Receptors; displacement of [3H]N-methyl spiroperidol (0.4 nM), membranes of transfected Chinese Hamster Ovary cells, 37 °C, 30 min; read-out: Ki.
As to `CS(=O)(=O)N1CCC([C@@H]2Cc3c(ccc(O)c3O)[C@H](CN)O2)CC1` (relative stereo) [Example 3D, cis-1-(Aminomethyl)-3,4-dihydro-3-(1-methylsulfonyl-4-piperidinyl)-1H-2-benzopyran-5,6-diol Hydrobromide], the Ki is 4200 nM. On to `Cc1ccccc1CCN1CCC([C@@H]2Cc3c(ccc(O)c3O)[C@H](CN)O2)CC1` (relative stereo) [Example 26, cis-1-Aminomethyl-3,4-dihydro-3-[1-[2-(2-methylphenyl)ethyl]-4-piperidinyl]-1H-2-benzopyran-5,6-diol Dihydrochloride], for which the Ki amounted to 684 nM. The same measure, in the same setting: the figure for `CCN1CCC([C@@H]2Cc3c(ccc(O)c3O)[C@H](CN)O2)CC1` (relative stereo) [Example 8, cis-1-(Aminomethyl)-3,4-dihydro-3-(1-ethyl-4-piperidinyl)-1H-2-benzopyran-5,6-diol Dihydrobromide] is 2510 nM; for `NC[C@@H]1O[C@H](C2CCN(CCc3cccs3)CC2)Cc2c1ccc(O)c2O` (relative stereo) [Example 25, cis-1-Aminomethyl-3,4-dihydro-3-[1-(2-(thiophen-2-yl)-ethyl-4-piperidinyl]-1H-2-benzopyral-5,6-diol Dihydrochloride Hydrate] it is 2100 nM. The same measure, in the same setting: as for `Br.Br.NC[C@@H]1O[C@H](C2CCN(CCCc3noc4cc(F)ccc34)CC2)Cc2c1ccc(O)c2O` (relative stereo) [Example 9, cis-1-(Aminomethyl)-3,4-dihydro-3-[1-[3-(6-fluoro-1,2-benzisoxazol-3-yl)propyl]piperidin-4-yl]-1H-2-benzopyran-5,6-diol Dihydrobromide], the figure is 178 nM; as for `CNC[C@@H]1O[C@H](C2CCN(CCc3ccc(OC)cc3)CC2)Cc2c1ccc(O)c2O` (relative stereo) [Example 10, cis-3,4-Dihydro-3-[1-[2-(4-methoxyphenyl)ethyl]-4-piperidinyl]-1-(N-methylaminomethyl)-1H-2-benzopyran-5,6-diol Dihydrochloride], 2500 nM; as for “cis-1-(3-[3-[4-[1-(Aminomethyl)-3,4-dihydro-5,6-dihydroxy-1H-2-benzopyran-3-yl]-1-piperidinyl]propoxy]-3-methoxyphenyl)ethanone Dihydrochloride Dihydrate [Example 31]”, 1100 nM.

Regarding `Br.Br.CC(=O)Oc1ccc2c(c1OC(C)=O)C[C@@H](C1CCN(CCc3ccccc3)CC1)O[C@H]2CN` (relative stereo) [Example 4E, cis-1-(Aminomethyl)-5,6-diacetoxy-3,4-dihydro-3-[1-(2-phenylethyl)-4-piperidinyl]-1H-2-benzopyran Dihydrobromide], the Ki is 1520 nM. On the same count and under the same terms, as for “cis-3-[1-[2-(4-Chlorophenyl)ethyl]--4-piperidinyl]-3,4-dihydro-1-(N-methylaminomethyl)-1H-2-benzopyran-5,6-diol dihydrochloride hemihydrate [Example 15]”, the figure is 413 nM.

The next assay has as its system CD-1 male mice. Description: Climbing mouse assay (CMA): antagonism of apomorphine-induced climbing. The assay is classed as in vivo.
Details: not given
As for the experimental part:
This test may be used as to identify compounds useful in treating psychosis. Costall, B. et al, Eur. J. Pharm. 50: 39-50 (1978); Protais, P., et al., Psychopharmacology 50:1-6 (1976). […] This effect of apomorphine is antagonized by the D2 receptor antagonist.
CD-1 male mice (20-30 grams) are assigned to groups of 8 and individually placed in wire mesh stick cages and allowed one hour for adaptation to new environment. Apomorphine is injected at 1.5 mg/kg subcutaneously which is a dose which causes climbing in all subjects for thirty minutes. Test compounds are administered intraperitoneally thirty minutes prior to the apomorphine administration at a dose of 20 mg/kg.
For evaluation of climbing, three readings are taken at ten, twenty and thirty minutes after apomorphine administration according to the following scale:
The climbing scores are individually totaled (maximal score: 6 per mouse over three readings) and total score of the control (vehicle intraperitoneally (ip) and apomorphine subcutaneous) is set to 100%. ED50 values with 95% confidence limits calculated by a linear regression analysis of some of the compounds of the present invention as well as a standard antipsychotic agent (clozapine) are presented in Table 1.
`NC[C@@H]1O[C@H](C2CCN(CCc3ccccc3)CC2)Cc2c1ccc(O)c2O` (relative stereo) [Example 4D, cis-1-(Aminomethyl)-3,4-dihvdro-3-[1-(2-phenylethyl)-4-piperidinyl]-1H-2-benzopyran-5,6-diol Dihydrobromide Sesquihydrate]: the 50% effect level (ED50) was put at a dose of 8.1 mg/kg.

Still in this assay, the particulars now being: ip, thirty minutes prior to apomorphine 1.5 mg/kg subcutaneously, climbing scored at ten, twenty and thirty minutes, linear regression analysis, read-out: ED50.
Turning to `Br.Br.CNC[C@@H]1O[C@H](C2CCN(CCc3ccccc3)CC2)Cc2c1ccc(O)c2O` (relative stereo) [Example 5, cis-1-(N-Methylaminomethyl)-3,4-dihydro-3-[1-(2-phenylethyl)-4-piperidinyl)-1H-2-benzopyran-5,6-diol Dihydrobromide], the ED50 turned out to be 6.9 mg/kg. On the same count and under the same terms, as for `Br.Br.NC[C@@H]1O[C@H](C2CCN(CCCc3noc4cc(F)ccc34)CC2)Cc2c1ccc(O)c2O` (relative stereo) [Example 9, cis-1-(Aminomethyl)-3,4-dihydro-3-[1-[3-(6-fluoro-1,2-benzisoxazol-3-yl)propyl]piperidin-4-yl]-1H-2-benzopyran-5,6-diol Dihydrobromide], the figure is 16 mg/kg. Same read-out and setting: as for `COc1ccc2c(c1OC)C[C@@H](C1CCN(CCCC(=O)c3ccc(F)cc3)CC1)O[C@H]2CNC=O.Cl` (relative stereo) [Example 21, N-[3-[1-[4-(4-Fluorophenyl)-4-oxobutyl]-4-piperidinyl]-3,4-dihydro-5,6-dimethoxy-1H-2-benzopyran-1-ylmethyl]formamide Hydrochloride], the figure is 19.6 mg/kg; as for `CN1CCN(C2=Nc3cc(Cl)ccc3Nc3ccccc32)CC1` [Clozapine, reference compound], 8.1 mg/kg; as for `Br.Br.CC(=O)Oc1ccc2c(c1OC(C)=O)C[C@@H](C1CCN(CCc3ccccc3)CC1)O[C@H]2CN` (relative stereo) [Example 4E, cis-1-(Aminomethyl)-5,6-diacetoxy-3,4-dihydro-3-[1-(2-phenylethyl)-4-piperidinyl]-1H-2-benzopyran Dihydrobromide], 11.1 mg/kg.
